Drawing on patent publication US6812243B2, “Indole derivatives and their use for the treatment of malignant and other diseases based on pathological proliferation” (Zentaris AG, priority 1998, dated 2004), this text covers melting point for 37 compounds.

Some results are limits rather than exact numbers.

`COc1ccc2c(c1)cc(C(OC)(c1ccccc1)c1cc3cc(OC)ccc3n1S(=O)(=O)c1ccccc1)n2S(=O)(=O)c1ccccc1` [Example 7, Di-(5-Methyloxy-1-phenylsulphonylindol-2-yl)phenyl-methyloxymethane] registered a melting point of 100 to 101 °C.

In turn, `CN(C)Cc1c(C(O)c2cc3ccccc3n2S(=O)(=O)c2ccccc2)n(S(=O)(=O)c2ccccc2)c2ccccc12` (stereo not shown) [Example 8, (3-Dimethylaminomethyl-1-phenylsulphonylindol-2-yl)(1-phenylsulphonylindol-2-yl)methan-1-ol] yielded a melting point of 116 to 117 °C. For `COc1ccc2cc(C(O)c3cc4ccccc4n3S(=O)(=O)c3ccccc3)n(S(=O)(=O)c3ccccc3)c2c1` (stereo not shown) [Example 11, 6-Methoxy-1-phenylsulphonyl-1H-2-indolyl(1-phenylsulphonyl-1H-2-indolyl)methanol], the melting point was found to be 180 °C. With `COc1cccc2cc(C(O)c3cc4ccccc4n3S(=O)(=O)c3ccccc3)n(S(=O)(=O)c3ccccc3)c12` (stereo not shown) [Example 12, 7-Methoxy-1-phenylsulphonyl-1H-2-indolyl(1-phenylsulphonyl-1H-2-indolyl)methanol] the figure was 148 to 150 °C; with `COc1ccc2c(c1)cc(C(=O)c1cc3ccccc3n1S(=O)(=O)c1ccccc1)n2S(=O)(=O)c1ccccc1` [Example 17, (5-Methoxy-N-phenylsulphonylindol-2-yl)-(N-phenylsulphonylindol-2-yl)methan-1-one], 205 °C. Compound `COc1ccc2[nH]c(C(=O)c3cc4cc(OC)ccc4[nH]3)cc2c1` [Example 21, Bis(5-methoxyindol-2-yl)-1-methanone] yielded a melting point of 202 to 204 °C. `COc1ccc2[nH]c(C(=O)c3cc4ccccc4s3)cc2c1` [Example 28, Benzo[b]thiophen-2-yl(5-methoxy-1H-2-indolyl)-1-methanone] registered a melting point of 200 °C. With `COc1cccc2cc(C(=O)c3cc4ccccc4n3S(=O)(=O)c3ccccc3)n(S(=O)(=O)c3ccccc3)c12` [Example 29, 7-Methoxy-1-phenylsulphonyl-1H-2-indolyl(1-phenyl-sulphonyl-1H-2-indolyl)methanone] the figure was 129 to 130 °C.

In turn, `COc1cccc2cc(C(=O)c3cc4ccccc4[nH]3)[nH]c12` [Example 30, 7-Methoxy-1H-2-indolyl(1H-2-indolyl)methanone] had a melting point of 151 °C. With `COc1ccc2cc(C(=O)c3cc4ccccc4n3S(=O)(=O)c3ccccc3)n(S(=O)(=O)c3ccccc3)c2c1` [Example 31, 6-Methoxy-1-phenylsulphonyl-1H-2-indolyl(1-phenylsulphonyl-1H-2-indolyl)methanone] the figure was 184 to 186 °C; with `COc1ccc2cc(C(=O)c3cc4ccccc4[nH]3)[nH]c2c1` [Example 32, 6-Methoxy-1H-2-indolyl(1H-2-indolyl)methanone], 184 to 186 °C; with `O=C(c1cc2ccccc2[nH]1)c1cc2cc(OCc3ccccc3)ccc2[nH]1` [Example 42, 5-Benzyloxy-1H-2-indolyl(1H-2-indolyl)methanone], 199 to 201 °C. With `O=C(c1cc2ccccc2[nH]1)c1cc2cc(O)ccc2[nH]1` [Example 43, 5-Hydroxy-1H-2-indolyl(1H-2-indolyl)methanone] the figure was above 220 °C. Take `CCOc1ccc2[nH]c(C(=O)c3cc4ccccc4[nH]3)cc2c1` [Example 44, 5-Ethoxy-1H-2-indolyl(1H-2-indolyl)methanone]: the melting point was 168 to 169 °C. With `O=C(c1cc2ccccc2[nH]1)c1cc2cc(OCCCCI)ccc2[nH]1` [Example 47, 5-(4-Iodobutyloxy)-1H-2-indolyl(1H-2-indolyl)methanone] the figure was 110 to 113 °C; with `O=C(c1cc2ccccc2[nH]1)c1cc2cc(OCC3CCCCC3)ccc2[nH]1` [Example 49, 5-Cyclohexylmethyloxy-1H-2-indolyl(1H-2-indolyl)-methanone], 185 °C (dec.). For `O=C(c1cc2ccccc2[nH]1)c1cc2cc(OCCCCCI)ccc2[nH]1` [Example 50, 5-(5-Iodopentyloxy)-1H-2-indolyl(1H-2-indolyl)methanone] the value was 127 to 130 °C; for `CN(C)CC(=O)Oc1ccc2[nH]c(C(=O)c3cc4ccccc4[nH]3)cc2c1` [Example 56], 215 to 217 °C. With `CCC(=O)Oc1ccc2[nH]c(C(=O)c3cc4ccccc4[nH]3)cc2c1` [Example 57] the figure was above 230 °C; with `COc1ccc2c(c1)cc(Cc1cc3cc(OC)ccc3n1S(=O)(=O)c1ccccc1)n2S(=O)(=O)c1ccccc1` [Example 71, Bis(5-methoxy-N-phenylsulphonylindol-2-yl)methane], 159 to 160 °C; with `COc1ccc2c(c1)cc(Cc1cc3ccccc3n1S(=O)(=O)c1ccccc1)n2S(=O)(=O)c1ccccc1` [Example 72, (5-Methoxy-N-phenylsulphonylindol-2-yl)-(N-phenyl-sulphonylindol-2-yl)methane], 98 to 100 °C. As for `COc1ccc2c(c1)cc(Cc1cc3cccc(OC)c3n1S(=O)(=O)c1ccccc1)n2S(=O)(=O)c1ccccc1` [Example 73, (5-Methoxy-N-phenylsulphonylindol-2-yl)-(7-methoxy-N-phenylsulphonylindol-2-yl)methane], the melting point was 168 to 170 °C. For `COc1ccc2[nH]c(C(=O)c3cc4ccccc4[nH]3)cc2c1` [Example 75, (5-Methoxyindol-2-yl)-(indol-2-yl)methanone] the value was 112 °C.

`COc1ccc2[nH]c3c(c2c1)C1=C(C(=O)NC1=O)c1c([nH]c2ccccc12)C3` [Example 82, 1,2,3,8,9,10-Hexahydro-5-methoxyindolo[3′,2′:5,6]-pyrrolo[3′,4′:3,4]-cyclohepta[b]indole-1,3-dione] yielded a melting point above 350 °C.

`CN1C(=O)C2=C(C1=O)c1c([nH]c3ccccc13)CCc1[nH]c3ccccc3c12` [Example 84, 1,2,3,8,9,10,11-Heptahydro-2-methylindolo[3′,2′:5,6]-pyrrolo[3′,4′:3,4]-cycloocta[b]indole-1,3-dione]: the melting point is above 350 °C. With `O=C1C2=C(C(=O)N1COCc1ccccc1)c1c([nH]c3ccccc13)Cc1[nH]c3ccccc3c12` [Example 85, 2-Benzyloxymethyl-1,2,3,8,9,10-hexahydroindolo-[3′,2′:5,6]-pyrrolo[3′,4′:3,4]-cyclohepta[b]indole-1,3-dione] the figure was above 350 °C. Regarding `CN(C)CCn1c2c(c3ccccc31)C1=C(C(=O)OC1=O)c1c([nH]c3ccccc13)C2` [Example 87, 3,8,9,10-Tetrahydro-8-[2-(N,N-dimethylamino)ethyl]-1H-indolo[3′,2′:5,6]furo[3′,4′:3,4]cyclohepta[b]indole-1,3-dione], the melting point was above 350 °C. For `CN(C)CCn1c2c(c3ccccc31)C1=C(C(=O)N(COCc3ccccc3)C1=O)c1c([nH]c3ccccc13)C2` [Example 88, 2-Benzyloxymethyl-1,2,3,8,9,10-hexahydro-8-[2-(N,N-di-methylamino)ethyl]indolo[3′,2′:5,6]pyrrolo[3′,4′:3,4]-cyclohepta[b]indole-1,3-dione] the value was 164 to 165 °C; for `CN(C)CCn1c2c(c3ccccc31)C1=C(C(=O)NC1=O)c1c([nH]c3ccccc13)C2` [Example 90, 1,2,3,8,9,10-Hexahydro-8-[2-(N,N-dimethylamino)ethyl]-indolo[3′,2′:5,6]pyrrolo[3′,4′:3,4]cyclohepta[b]indole-1,3-dione], 213 to 214 °C. With `CN1C(=O)C(Br)=C(c2c(CCc3cc4ccccc4[nH]3)[nH]c3ccccc23)C1=O` [Example 91, 3-Bromo-4-(2-(2-(1H-2-indolyl)ethyl)-1H-3-indolyl)-1-methyl-2,5-dihydro-1H-pyrrole-2,5-dione] the figure was 169 °C; with `CN1C(=O)C(Br)=C(c2c(CCCCc3cc4ccccc4[nH]3)[nH]c3ccccc23)C1=O` [Example 92, 3-Bromo-4-(2-(4-(1H-2-indolyl)butyl)-1H-3-indolyl)-1-methyl-2,5-dihydro-1H-pyrrole-2,5-dione], 165 °C (dec.). Turning to `CN1C(=O)C(Br)=C(c2c(CCCCCc3cc4ccccc4[nH]3)[nH]c3ccccc23)C1=O` [Example 93, 3-Bromo-4-(2-(5-(1H-2-indolyl)pentyl)-1H-3-indolyl)-1-methyl-2,5-dihydro-1H-pyrrole-2,5-dione], the melting point was 125 °C (dec.). `O=C(c1c[nH]c2ccccc12)c1c[nH]c2ccccc12` [Example 94, Bis(indol-3-yl)methanone]: the melting point was 297 to 299 °C. For `CN1C(=O)C(Br)=C(c2c(CCCCCc3[nH]c4ccccc4c3C3=C(Br)C(=O)N(C)C3=O)[nH]c3ccccc23)C1=O` [Example 112, 3-Bromo-4-(2-(5-(3-(4-bromo-1-methyl-2,5-dioxo-2,5-dihydro-1H-3-pyrrolyl)-1H-2-indolyl)pentyl)-1H-3-indolyl)-1-methyl-2,5-dihydro-1H-pyrrole-2,5-dione] the value was 137 °C (dec.); for `O=C1NC(=O)C(c2c(CCCc3[nH]c4ccccc4c3C3=C(Br)C(=O)NC3=O)[nH]c3ccccc23)=C1Br` [Example 113, 3-Bromo-4-(2-(3-(3-(4-bromo-2,5-dioxo-2,5-dihydro-1H-3-pyrrolyl)-1H-2-indolyl)propyl)-1H-3-indolyl)-2,5-dihydro-1H-pyrrole-2,5-dione], above 350 °C; for `O=C1NC(=O)C(c2c(CCCCCc3[nH]c4ccccc4c3C3=C(Br)C(=O)NC3=O)[nH]c3ccccc23)=C1Br` [Example 114, 3-Bromo-4-(2-(5-(3-(4-bromo-2,5-dioxo-2,5-dihydro-1H-3-pyrrolyl)-1H-2-indolyl)pentyl)-1H-3-indolyl)-2,5-dihydro-1H-pyrrole-2,5-dione], > 350 °C (dec.). For `O=C1NC(=O)C(c2c(CCCCCCCCc3[nH]c4ccccc4c3C3=C(Br)C(=O)NC3=O)[nH]c3ccccc23)=C1Br` [Example 115, 3-Bromo-4-(2-(8-(3-(4-bromo-2,5-dioxo-2,5-dihydro-1H-3-pyrrolyl)-1H-2-indolyl)octyl)-1H-3-indolyl)-2,5-dihydro-1H-pyrrole-2,5-dione] the value was 180 °C (dec.).

One may read the melting point as the temperature of the solid-liquid transition.
